Reference: the supplement of paper PMC11061612

Columns and labels:
Test in all cases: Bliss excess, mean over the matrix (fraction); higher = more synergy
[1] = tested on: 23132-87 (Gastric Carcinoma)
Procedure, shortened: (§1)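 Cell lines in DMEM/F12 or RPMI with 10% FBS were plated in 1536-well plates, held 24 hours at 37°C, 5% CO2, then given two-drug dose matrices for 72 hours (DMSO typically 0.2%). Viability was read by CellTiter-Glo 2.0 luminescence and scaled as inhibition from 0 (vehicle wells) to 1 (blank wells). Combination Emax is the second-highest inhibition in the matrix; Bliss excess is observed combination effect minus expected EA + EB − EA·EB, EA and EB being single-agent effects.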

[2] = tested on: CAL-120 (Breast Carcinoma)
Procedure, shortened: as §1

[3] = tested on: CAL-62 (Thyroid Gland Carcinoma)
Procedure, shortened: as §1

GB-1 (Glioblastoma) = tested on: GB-1 (Glioblastoma)
Procedure, shortened: as §1

[4] = tested on: HCT-15 (Colorectal Carcinoma)
Procedure, shortened: as §1

[5] = tested on: HSC-39 (Gastric Carcinoma)
Procedure, shortened: as §1

[6] = tested on: L-1236 (Hodgkin's Lymphoma)
Procedure, shortened: as §1

[7] = tested on: LB996-RCC (Kidney Carcinoma)
Procedure, shortened: as §1

[8] = tested on: LXF-289 (Lung Adenocarcinoma)
Procedure, shortened: as §1

[9] = tested on: OPM-2 (Plasma Cell Myeloma)
Procedure, shortened: as §1

[10] = tested on: OVMIU (Ovarian Carcinoma)
Procedure, shortened: as §1

[11] = tested on: PSN1 (Pancreatic Carcinoma)
Procedure, shortened: as §1

[12] = tested on: RCM-1 (Colorectal Carcinoma)
Procedure, shortened: as §1

[13] = tested on: REH (B-Lymphoblastic Leukemia)
Procedure, shortened: as §1

[14] = tested on: RERF-GC-1B (Gastric Carcinoma)
Procedure, shortened: as §1

[15] = tested on: RKN (Other Solid Carcinomas)
Procedure, shortened: as §1

[16] = tested on: SU-DHL-10 (B-Cell Non-Hodgkin's Lymphoma)
Procedure, shortened: as §1

[17] = tested on: VAL (B-Cell Non-Hodgkin's Lymphoma)
Procedure, shortened: as §1

WM278 (Melanoma) = tested on: WM278 (Melanoma)
Procedure, shortened: as §1

[18] = tested on: TE-8 (Esophageal Squamous Cell Carcinoma)
Procedure, shortened: as §1

For `CN(C)CCCOc1ccc(-c2ccc3ncc4c(c3c2)n(C2CCOCC2)c(=O)n4C)cn1` [AZD0156] + O=C(c1cc(Cc2n[nH]c(=O)c3ccccc23)ccc1F)N1CCN(C(=O)C2CC2)CC1 [Olaparib] (first compound max 3 µM, partner max 3 µM), which Bliss excess [1] is on record?
Its Bliss excess is 0.198.

And the Bliss excess [2]?
Its Bliss excess is 0.0047.

And the Bliss excess [3]?
Its Bliss excess is 0.0939.

What about the Bliss excess (GB-1 (Glioblastoma)) of the same molecule?
The Bliss excess was 0.014.

What about the Bliss excess [4] of the same molecule?
The Bliss excess was 0.007.

And the Bliss excess [5]?
The Bliss excess was 0.128.

And the Bliss excess [6]?
The Bliss excess was -0.0602.

What about the Bliss excess [7] of the same molecule?
Its Bliss excess is 0.0071.

And the Bliss excess [8]?
Its Bliss excess is 0.092.

What about the Bliss excess [9] of the same molecule?
The Bliss excess was 0.0067.

What about the Bliss excess [10] of the same molecule?
Its Bliss excess is 0.06.

What about the Bliss excess [11] of the same molecule?
Its Bliss excess is 0.0124.

What about the Bliss excess [12] of the same molecule?
The Bliss excess was 0.003.

What about the Bliss excess [13] of the same molecule?
The Bliss excess was 0.143.

What about the Bliss excess [14] of the same molecule?
The Bliss excess was -0.0079.

And the Bliss excess [15]?
The Bliss excess was 0.0042.

And the Bliss excess [16]?
The Bliss excess was 0.11.

What about the Bliss excess [17] of the same molecule?
Its Bliss excess is 0.141.

What about the Bliss excess (WM278 (Melanoma)) of the same molecule?
Its Bliss excess is 0.0011.

What does the source list for `C=CCn1c(=O)c2cnc(Nc3ccc(N4CCN(C)CC4)cc3)nc2n1-c1cccc(C(C)(C)O)n1` [AZD1775] + C1CN(CCC1(C(=O)N[C@@H](CCO)C2=CC=C(C=C2)Cl)N)C3=NC=NC4=C3C=CN4 [Capivasertib] (first compound max 3 µM, partner max 3 µM)?
Bliss excess [1]: -0.0207; Bliss excess [2]: -0.0265; Bliss excess [3]: 0.0089; Bliss excess (GB-1 (Glioblastoma)): -0.0211; Bliss excess [4]: 0.0159; Bliss excess [5]: 0.0067; Bliss excess [6]: -0.097; Bliss excess [7]: -0.0587; Bliss excess [8]: -0.0046; Bliss excess [9]: 0.0001; Bliss excess [10]: -0.0032; Bliss excess [11]: -0.0238; Bliss excess [12]: 0.0141; Bliss excess [13]: 0.0008; Bliss excess [14]: -0.0632; Bliss excess [15]: -0.0476; Bliss excess [16]: 0.0484; Bliss excess [17]: -0.0252; Bliss excess (WM278 (Melanoma)): -0.0468

Which Bliss excess [1] does the source give for `C=CCn1c(=O)c2cnc(Nc3ccc(N4CCN(C)CC4)cc3)nc2n1-c1cccc(C(C)(C)O)n1` [AZD1775] + C[C@@H]1COCCN1C2=NC(=NC(=C2)C3(CC3)[S@](=N)(=O)C)C4=C5C=CNC5=NC=C4 [AZD6738] (first compound max 1 µM, partner max 10 µM) here?
The Bliss excess was 0.083.

And the Bliss excess [2]?
The Bliss excess was 0.0021.

What about the Bliss excess [3] of the same molecule?
Its Bliss excess is -0.061.

What about the Bliss excess [4] of the same molecule?
The Bliss excess was 0.0483.

And the Bliss excess [5]?
Its Bliss excess is 0.0459.

What about the Bliss excess [6] of the same molecule?
The Bliss excess was -0.032.

And the Bliss excess [7]?
The Bliss excess was 0.011.

What about the Bliss excess [8] of the same molecule?
Its Bliss excess is 0.0266.

What about the Bliss excess [9] of the same molecule?
The Bliss excess was 0.0437.

What about the Bliss excess [10] of the same molecule?
Its Bliss excess is -0.0635.

What about the Bliss excess [11] of the same molecule?
Its Bliss excess is -0.0188.

And the Bliss excess [12]?
The Bliss excess was 0.0014.

What about the Bliss excess [13] of the same molecule?
The Bliss excess was 0.0406.

What about the Bliss excess [14] of the same molecule?
The Bliss excess was 0.0634.

And the Bliss excess [15]?
Its Bliss excess is -0.0029.

What about the Bliss excess [16] of the same molecule?
Its Bliss excess is 0.0505.

What about the Bliss excess [18] of the same molecule?
Its Bliss excess is 0.0126.

And the Bliss excess [17]?
Its Bliss excess is 0.0239.

And the Bliss excess (WM278 (Melanoma))?
The Bliss excess was -0.0058.

What does the source list for `C=CCn1c(=O)c2cnc(Nc3ccc(N4CCN(C)CC4)cc3)nc2n1-c1cccc(C(C)(C)O)n1` [AZD1775] + O=C(c1cc(Cc2n[nH]c(=O)c3ccccc23)ccc1F)N1CCN(C(=O)C2CC2)CC1 [Olaparib] (first compound max 1 µM, partner max 10 µM)?
Bliss excess [1]: -0.0282; Bliss excess [2]: 0.0027; Bliss excess [3]: 0.0017; Bliss excess (GB-1 (Glioblastoma)): -0.0537; Bliss excess [4]: -0.0674; Bliss excess [5]: 0.0277; Bliss excess [6]: -0.0441; Bliss excess [8]: -0.0247; Bliss excess [9]: -0.0561; Bliss excess [10]: -0.0135; Bliss excess [11]: -0.0585; Bliss excess [12]: -0.0861; Bliss excess [13]: -0.0474; Bliss excess [14]: -0.0124; Bliss excess [15]: -0.0138; Bliss excess [16]: -0.0229; Bliss excess [18]: -0.03; Bliss excess [17]: -0.0411; Bliss excess (WM278 (Melanoma)): -0.0312
